Test results reported in patent publication US11292760B2, “Therapeutic acrylates as enhanced medical adhesives” (Carnegie Mellon University, priority 2016, dated 2022).

How the values were obtained:
[1] = Solubility of TMA monomer in adhesive monomers; assay type: physicochemical
[2] = Time-lapse 1H NMR of hydrolysis after exposure to D2O; assay type: physicochemical; conditions: monomer dissolved in CDCl3, 1H NMR
Protocol: […] One drop of deuterium oxide (D2O, EMD Millipore) was then added and the sample inverted gently once to mix. Spectra were recorded immediately, then periodically for the next two hours.

| Compound | solubility in BCA monomer ([1]; 25% TMA by weight in the adhesive, preliminary formulation tests) | solubility in methyl methacrylate monomer ([1]; commercial formulation) | solubility in n-butyl cyanoacrylate ([1]; commercial formulation) | time course of anhydride bond hydrolysis after exposure to D2O [2] |
| --- | --- | --- | --- | --- |
| C=C(C)C(=O)Nc1ccc(C(=O)OCC)cc1 [BenzMA, Benzocaine Methacrylamide] | excellent solubility |  |  |  |
| C=C(C)C(=O)OC(=O)C(C)c1ccc(CC(C)C)cc1 (stereo not shown) [IbuMA, Ibuprofen Methacrylic Anhydride] |  | soluble | soluble | 90 min |
